Experimental findings from PMC10636171 (Cell Death & Disease, 2023) are described below.

For one data set, the system named is MNK45 cell line. Description: Apoptosis assay, annexin V and PI staining, flow cytometry. The format is cell-based, human. The conditions noted are these: control group 5%. The protocol: MHCC97H or MKN45 cells were seeded in 6-well plates (3 × 10^4 cells/well) and incubated in the presence or absence of compound 1D228, for the cell apoptosis assay, cells were harvested and incubated with 5 μL of Annexin-V/FITC (Keygen Biotech, China) in binding buffer (10 mM HEPES, 140 mM NaCl, and 2.5 mM CaCl2 at pH 7.4) at room temperature for 15 min. PI solution was then added to the medium for another 10 min-incubation. Almost 10,000 events were collected for each sample and analysed by flow cytometry (Beckman Coulter, Epics XL). For the cell cycle assay, cells were fixed in ice-cold 70% ethanol overnight. After the ethanol was removed the next day, the cells were re-suspended in ice-cold PBS, treated with RNAse A (Keygen Biotech, China) at 37 °C for 30 min, and then incubated with the DNA staining solution propidium iodide (PI, Keygen Biotech, China) at 4 °C for 30 min. Approximately 10,000 events were detected by flow cytometry (Beckman Coulter, Epics XL) at 488 nm. The data regarding the number of cells in different phases of the cell cycle were analysed using EXPO32 ADC analysis software.

In a further data set the target is T1, TRKB (Homo sapiens, UniProt Q16620).
T1 construct: purchased Invitrogen
T1 sequence (Q16620 32-822): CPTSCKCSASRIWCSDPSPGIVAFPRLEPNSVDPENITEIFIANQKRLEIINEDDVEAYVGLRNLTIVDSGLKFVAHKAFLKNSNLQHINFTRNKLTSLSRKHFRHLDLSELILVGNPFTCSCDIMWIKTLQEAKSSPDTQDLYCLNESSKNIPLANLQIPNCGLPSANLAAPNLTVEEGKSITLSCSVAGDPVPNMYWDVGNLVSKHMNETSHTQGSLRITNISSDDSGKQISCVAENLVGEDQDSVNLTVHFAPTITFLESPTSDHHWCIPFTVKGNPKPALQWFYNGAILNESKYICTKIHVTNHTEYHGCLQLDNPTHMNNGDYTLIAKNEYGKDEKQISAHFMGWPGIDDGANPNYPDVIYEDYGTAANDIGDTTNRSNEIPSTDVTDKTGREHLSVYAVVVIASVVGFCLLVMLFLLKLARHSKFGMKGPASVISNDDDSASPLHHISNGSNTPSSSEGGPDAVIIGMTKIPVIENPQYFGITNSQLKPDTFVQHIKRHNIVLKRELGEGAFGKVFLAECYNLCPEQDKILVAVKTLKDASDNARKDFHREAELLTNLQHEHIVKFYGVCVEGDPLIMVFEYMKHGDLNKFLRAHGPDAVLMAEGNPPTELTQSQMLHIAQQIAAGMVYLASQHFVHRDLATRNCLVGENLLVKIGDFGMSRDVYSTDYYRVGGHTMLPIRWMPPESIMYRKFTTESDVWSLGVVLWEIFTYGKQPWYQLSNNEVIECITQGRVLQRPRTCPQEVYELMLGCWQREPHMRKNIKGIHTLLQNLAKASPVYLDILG
Description: HTRF kinase assay. The format is biochemical. The protocol:
(§1) HTRF kinase assay to test the activity of compound 1D228 on c-Met and NTRK kinases: c-Met, TRKA, TRKB and TRKC as well as the Zˊ-Lyte kinase Kit were purchased from Invitrogen. The experiments were performed according to the instructions of the manufacturer. Concentrations consisting of 2 or 10 levels from 0.001 to 1 mM were used for 1D228. Plate was measured on multifunction microplate reader (Molecular Devices, Flex Station 3). Curve fitting and data presentations were performed using Graph Pad Prism version 5.0. Every experiment was repeated at least 3 times.

Another data set addresses T2, TRKA (Homo sapiens, UniProt P04629).
T2 construct: purchased Invitrogen (c-Met, TRKA, TRKB, TRKC)
Put plainly: HTRF kinase assay. The class given is biochemical. The procedure: as §1

The target of the next data set is T3, TRKC (Homo sapiens, UniProt Q16288).
T3 construct: purchased Invitrogen (c-Met, TRKA, TRKB, TRKC)
T3 sequence (Q16288 32-839): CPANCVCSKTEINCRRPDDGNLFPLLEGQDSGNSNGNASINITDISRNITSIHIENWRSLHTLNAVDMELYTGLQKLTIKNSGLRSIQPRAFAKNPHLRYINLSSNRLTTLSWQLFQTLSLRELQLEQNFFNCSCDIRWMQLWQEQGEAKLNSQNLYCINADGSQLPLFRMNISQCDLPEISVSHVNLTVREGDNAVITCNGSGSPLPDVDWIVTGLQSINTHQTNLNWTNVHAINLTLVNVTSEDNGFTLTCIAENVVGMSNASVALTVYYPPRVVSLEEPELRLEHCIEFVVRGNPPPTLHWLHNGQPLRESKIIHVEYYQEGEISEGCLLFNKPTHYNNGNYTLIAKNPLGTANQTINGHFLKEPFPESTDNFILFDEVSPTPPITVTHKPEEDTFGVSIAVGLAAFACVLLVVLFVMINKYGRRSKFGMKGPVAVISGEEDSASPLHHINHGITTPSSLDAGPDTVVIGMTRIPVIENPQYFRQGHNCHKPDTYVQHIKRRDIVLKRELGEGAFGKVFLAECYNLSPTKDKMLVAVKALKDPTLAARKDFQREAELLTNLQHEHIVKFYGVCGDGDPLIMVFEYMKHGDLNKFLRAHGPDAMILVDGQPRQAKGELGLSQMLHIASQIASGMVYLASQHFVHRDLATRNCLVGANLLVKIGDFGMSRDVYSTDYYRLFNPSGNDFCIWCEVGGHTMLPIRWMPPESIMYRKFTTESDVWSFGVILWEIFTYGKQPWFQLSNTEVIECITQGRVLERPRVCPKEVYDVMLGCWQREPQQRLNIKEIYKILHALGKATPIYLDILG
Description: HTRF kinase assay. The format is biochemical. The protocol: as §1

Another data set addresses T4, c-Met kinase (Homo sapiens, UniProt P08581).
T4 construct: purchased Invitrogen
Description: HTRF kinase assay. The format is biochemical. The procedure:
as §1

The next data set relates to MKN45 xenograft tumor. Description: MKN45 xenograft: 1D228 alone versus Tepotinib and Larotrectinib. The class given is in vivo, nude mouse. The protocol:
Male BALB/c nude mice (5-week old, 18–20 g) were purchased from Beijing Vital River Laboratory Animal Technology (Beijing Vital River LaboratoryAnimal Technology Co., Ltd., Beijing,China) and allowed to acclimate for 1 week, maintained at constant room temperature and fed a standard rodent chow and water. 1 × 10^7 cells/mL cancer cells grown in logarithmic phase were harvested and resuspended in FBS-free 1640 medium. Then, 100 μL of the cell suspension was subcutaneously injected into the right flank of each mouse. When the tumour volume was reached about 600–800 mm^3, it was removed, minced into small pieces of equal volume (2 × 2 × 2 mm^3), and transplanted subcutaneously into the nude mice. […]

T4 sequence (P08581 25-1390): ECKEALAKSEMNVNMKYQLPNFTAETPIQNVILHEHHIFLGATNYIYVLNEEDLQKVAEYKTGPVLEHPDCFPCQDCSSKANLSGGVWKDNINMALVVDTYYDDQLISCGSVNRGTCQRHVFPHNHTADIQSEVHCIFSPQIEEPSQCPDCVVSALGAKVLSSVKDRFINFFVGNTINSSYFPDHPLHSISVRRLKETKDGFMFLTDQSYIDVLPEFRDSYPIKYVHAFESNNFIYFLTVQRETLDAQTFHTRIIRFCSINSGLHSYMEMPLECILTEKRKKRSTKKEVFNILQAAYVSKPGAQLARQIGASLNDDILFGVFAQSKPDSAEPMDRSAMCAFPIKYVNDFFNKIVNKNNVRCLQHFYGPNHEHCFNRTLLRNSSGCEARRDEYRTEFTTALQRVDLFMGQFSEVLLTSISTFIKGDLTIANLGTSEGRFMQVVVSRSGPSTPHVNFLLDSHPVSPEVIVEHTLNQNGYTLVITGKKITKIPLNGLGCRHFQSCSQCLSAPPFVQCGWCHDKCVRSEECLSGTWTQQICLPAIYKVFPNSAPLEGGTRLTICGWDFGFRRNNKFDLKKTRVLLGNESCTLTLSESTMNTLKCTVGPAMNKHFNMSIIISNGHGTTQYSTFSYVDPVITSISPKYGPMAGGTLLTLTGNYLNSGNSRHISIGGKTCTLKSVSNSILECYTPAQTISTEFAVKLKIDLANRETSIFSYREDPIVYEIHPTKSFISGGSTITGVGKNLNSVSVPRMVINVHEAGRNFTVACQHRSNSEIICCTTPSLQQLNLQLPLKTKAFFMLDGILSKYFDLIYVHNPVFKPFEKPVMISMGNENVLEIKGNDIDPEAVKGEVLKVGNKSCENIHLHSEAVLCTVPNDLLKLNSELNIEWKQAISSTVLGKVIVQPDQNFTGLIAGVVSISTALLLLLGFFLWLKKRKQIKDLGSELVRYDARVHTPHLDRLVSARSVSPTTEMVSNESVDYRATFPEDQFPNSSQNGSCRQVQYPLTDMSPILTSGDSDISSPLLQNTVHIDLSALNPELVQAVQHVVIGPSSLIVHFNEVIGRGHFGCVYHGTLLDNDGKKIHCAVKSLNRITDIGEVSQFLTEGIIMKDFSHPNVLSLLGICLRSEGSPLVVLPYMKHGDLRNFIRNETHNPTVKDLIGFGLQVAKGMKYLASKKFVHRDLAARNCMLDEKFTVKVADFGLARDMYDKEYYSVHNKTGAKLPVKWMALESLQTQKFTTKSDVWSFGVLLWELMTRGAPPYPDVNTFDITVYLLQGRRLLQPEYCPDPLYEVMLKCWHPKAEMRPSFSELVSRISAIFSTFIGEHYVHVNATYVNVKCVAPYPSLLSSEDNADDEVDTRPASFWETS
T2 sequence (P04629 33-796): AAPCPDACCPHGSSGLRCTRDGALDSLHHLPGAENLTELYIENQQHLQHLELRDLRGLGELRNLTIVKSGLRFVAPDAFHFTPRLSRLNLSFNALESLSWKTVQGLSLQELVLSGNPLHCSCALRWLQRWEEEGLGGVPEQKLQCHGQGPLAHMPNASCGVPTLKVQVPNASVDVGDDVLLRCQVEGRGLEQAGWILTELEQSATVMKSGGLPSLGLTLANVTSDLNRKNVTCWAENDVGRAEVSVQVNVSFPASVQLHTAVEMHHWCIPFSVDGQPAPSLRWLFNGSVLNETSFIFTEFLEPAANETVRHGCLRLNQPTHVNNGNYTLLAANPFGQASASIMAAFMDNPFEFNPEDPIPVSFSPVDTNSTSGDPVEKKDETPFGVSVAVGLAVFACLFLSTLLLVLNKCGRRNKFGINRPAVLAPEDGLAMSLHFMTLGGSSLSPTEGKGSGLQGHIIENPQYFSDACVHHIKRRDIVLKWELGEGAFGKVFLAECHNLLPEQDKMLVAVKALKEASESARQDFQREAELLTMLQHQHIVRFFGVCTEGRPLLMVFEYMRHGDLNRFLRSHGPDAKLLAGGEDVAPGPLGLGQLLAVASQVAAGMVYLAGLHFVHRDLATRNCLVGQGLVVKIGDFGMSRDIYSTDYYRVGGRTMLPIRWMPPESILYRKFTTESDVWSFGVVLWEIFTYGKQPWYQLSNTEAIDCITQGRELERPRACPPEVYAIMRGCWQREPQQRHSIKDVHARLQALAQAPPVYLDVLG

As to `[2H][C@@](C)(c1cccc(-c2ncc(OCC3CCN(C)CC3)cn2)c1)n1nc(-c2cccc(C#N)c2)ccc1=O` [1D228], in the data set with MNK45 cell line (annexin V / PI staining), the Apoptosis is given as 53–75%. In addition, in the data set with MNK45 cell line, the “Apoptosis, times higher than in the control group” value is listed as 10–15 times. Besides, the IC50 amounted to 23.7 nM at TRKB, 111 nM on TRKA, 25.5 nM at TRKC and 0.98 nM against c-Met kinase. Also, the Tumor volume reduction in the data set with MKN45 xenograft tumor (MKN45 gastric cancer nude mouse transplant tumor) is given as around 90%. The “Body weight of tumor bearing mice” value in the data set on MKN45 xenograft tumor (MKN45 xenograft) was “the opposite was true”.
